Test results from PMC6458995, “MAP4K4 Inhibition Promotes Survival of Human Stem Cell-Derived Cardiomyocytes and Reduces Infarct Size In Vivo” (Cell Stem Cell, 2019).

Tests used:
Assay in all cases: Dundee kinase panel
Type in all cases: biochemical
Conditions in all cases: for remaining activity at 1 µM: read-out: residual activity
GSK3b = target: T1, GSK3b (Homo sapiens, UniProt P49841)
T1 construct: lines 1-140) and Reaction Biology
Protocol: (§1) Compounds were screened at 1 μM. For key hits, pIC50 values were then determined by HTRF as above. […] Stability in mouse and human liver microsomes was determined by Cyprotex.

RIPK2 = target: T2, RIPK2 (Homo sapiens, UniProt O43353)
T2 construct: lines 1-140) and Reaction Biology
T2 sequence (O43353 whole entry): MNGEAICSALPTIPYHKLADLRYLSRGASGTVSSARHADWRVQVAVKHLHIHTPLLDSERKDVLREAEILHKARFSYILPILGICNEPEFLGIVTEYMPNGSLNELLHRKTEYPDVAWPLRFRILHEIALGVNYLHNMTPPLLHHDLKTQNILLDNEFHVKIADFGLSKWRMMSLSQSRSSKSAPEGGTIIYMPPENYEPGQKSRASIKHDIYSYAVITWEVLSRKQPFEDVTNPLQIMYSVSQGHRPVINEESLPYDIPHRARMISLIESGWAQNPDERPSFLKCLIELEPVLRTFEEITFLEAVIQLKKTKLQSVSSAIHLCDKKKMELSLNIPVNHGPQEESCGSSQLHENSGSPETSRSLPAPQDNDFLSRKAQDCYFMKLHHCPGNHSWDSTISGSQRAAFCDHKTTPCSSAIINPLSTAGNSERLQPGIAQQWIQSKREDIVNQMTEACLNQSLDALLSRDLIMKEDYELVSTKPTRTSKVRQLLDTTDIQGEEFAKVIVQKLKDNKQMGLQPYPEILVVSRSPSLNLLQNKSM
Protocol: as §1

MELK = target: T3, MELK (Homo sapiens, UniProt Q14680)
T3 construct: lines 1-140) and Reaction Biology
Protocol: as §1

Aurora B = target: T4, Aurora B (Homo sapiens, UniProt Q96GD4)
T4 construct: lines 1-140) and Reaction Biology
T4 sequence (Q96GD4 whole entry): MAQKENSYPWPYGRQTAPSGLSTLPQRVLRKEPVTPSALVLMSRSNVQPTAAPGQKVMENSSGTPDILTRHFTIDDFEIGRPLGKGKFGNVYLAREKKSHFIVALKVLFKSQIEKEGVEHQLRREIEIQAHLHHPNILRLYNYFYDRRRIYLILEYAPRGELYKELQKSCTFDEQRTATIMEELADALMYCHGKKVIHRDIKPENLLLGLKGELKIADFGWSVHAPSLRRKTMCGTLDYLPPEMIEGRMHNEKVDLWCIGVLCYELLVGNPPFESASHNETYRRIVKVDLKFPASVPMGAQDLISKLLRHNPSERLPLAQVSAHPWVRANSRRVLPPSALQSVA
Protocol: as §1

p38b MAPK = target: T5, p38b MAPK (Homo sapiens, UniProt Q15759)
T5 construct: lines 1-140) and Reaction Biology
Protocol: as §1

VEGFR = target: T6, VEGFR (Homo sapiens, UniProt P17948)
T6 construct: lines 1-140) and Reaction Biology
T6 sequence (P17948 784-1338 limits assumed): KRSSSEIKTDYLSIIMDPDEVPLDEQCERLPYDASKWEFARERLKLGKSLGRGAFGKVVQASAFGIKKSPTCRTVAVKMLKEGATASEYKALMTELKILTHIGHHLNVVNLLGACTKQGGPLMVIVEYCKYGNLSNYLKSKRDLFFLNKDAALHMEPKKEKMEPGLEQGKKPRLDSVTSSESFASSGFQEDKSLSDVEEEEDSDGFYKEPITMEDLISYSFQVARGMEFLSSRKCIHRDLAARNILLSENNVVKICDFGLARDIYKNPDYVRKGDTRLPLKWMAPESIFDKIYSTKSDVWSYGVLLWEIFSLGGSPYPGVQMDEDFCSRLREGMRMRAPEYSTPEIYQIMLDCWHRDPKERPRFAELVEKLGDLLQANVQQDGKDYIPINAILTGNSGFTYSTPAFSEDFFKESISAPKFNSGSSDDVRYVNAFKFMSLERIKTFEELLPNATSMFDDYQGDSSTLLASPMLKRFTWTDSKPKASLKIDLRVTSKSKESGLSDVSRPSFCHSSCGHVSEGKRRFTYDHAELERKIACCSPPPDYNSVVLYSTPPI
Protocol: as §1

MLK3 = target: T7, MLK3 (Homo sapiens, UniProt Q16584)
T7 construct: lines 1-140) and Reaction Biology
T7 sequence (Q16584 whole entry): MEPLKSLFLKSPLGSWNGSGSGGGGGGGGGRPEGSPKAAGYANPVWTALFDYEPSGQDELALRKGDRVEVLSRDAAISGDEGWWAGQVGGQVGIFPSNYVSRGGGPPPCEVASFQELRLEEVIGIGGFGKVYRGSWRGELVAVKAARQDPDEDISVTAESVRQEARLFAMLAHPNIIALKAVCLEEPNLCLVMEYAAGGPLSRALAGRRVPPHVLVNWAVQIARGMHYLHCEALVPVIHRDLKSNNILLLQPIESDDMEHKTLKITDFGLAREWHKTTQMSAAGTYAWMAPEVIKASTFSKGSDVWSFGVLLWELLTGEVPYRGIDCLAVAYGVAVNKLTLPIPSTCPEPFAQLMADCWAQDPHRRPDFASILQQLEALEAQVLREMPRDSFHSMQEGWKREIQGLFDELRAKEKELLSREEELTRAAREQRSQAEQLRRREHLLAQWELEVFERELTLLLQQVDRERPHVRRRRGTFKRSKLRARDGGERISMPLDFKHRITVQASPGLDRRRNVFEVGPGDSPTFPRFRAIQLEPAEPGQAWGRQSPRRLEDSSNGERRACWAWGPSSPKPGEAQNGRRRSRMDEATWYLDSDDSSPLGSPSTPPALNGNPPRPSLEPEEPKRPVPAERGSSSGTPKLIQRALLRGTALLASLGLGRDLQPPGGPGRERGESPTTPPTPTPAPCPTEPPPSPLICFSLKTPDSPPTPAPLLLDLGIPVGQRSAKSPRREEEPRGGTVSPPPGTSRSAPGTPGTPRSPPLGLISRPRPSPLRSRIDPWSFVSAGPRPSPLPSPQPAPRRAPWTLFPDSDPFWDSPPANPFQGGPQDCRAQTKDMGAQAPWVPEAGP
Protocol: as §1

PIM2 = target: T8, PIM2 (Homo sapiens, UniProt Q9P1W9)
T8 construct: lines 1-140) and Reaction Biology
Protocol: as §1

CAMKKb = target: T9, CAMKKb (Homo sapiens, UniProt Q96RR4)
T9 construct: lines 1-140) and Reaction Biology
T9 sequence (Q96RR4 whole entry): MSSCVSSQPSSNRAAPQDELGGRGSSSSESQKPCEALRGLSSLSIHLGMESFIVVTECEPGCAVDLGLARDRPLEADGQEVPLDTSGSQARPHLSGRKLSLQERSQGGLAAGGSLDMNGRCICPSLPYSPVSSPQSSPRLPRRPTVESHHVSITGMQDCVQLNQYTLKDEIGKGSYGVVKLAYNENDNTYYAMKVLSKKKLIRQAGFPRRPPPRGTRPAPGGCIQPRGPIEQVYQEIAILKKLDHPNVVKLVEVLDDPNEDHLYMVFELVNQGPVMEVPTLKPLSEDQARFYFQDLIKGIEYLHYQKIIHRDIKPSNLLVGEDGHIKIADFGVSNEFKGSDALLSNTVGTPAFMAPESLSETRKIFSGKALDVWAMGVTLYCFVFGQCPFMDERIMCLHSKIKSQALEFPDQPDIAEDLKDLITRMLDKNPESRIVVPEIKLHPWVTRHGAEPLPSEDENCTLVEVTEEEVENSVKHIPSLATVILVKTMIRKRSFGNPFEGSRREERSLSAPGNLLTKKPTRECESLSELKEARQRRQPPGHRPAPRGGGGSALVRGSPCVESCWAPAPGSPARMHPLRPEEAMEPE
Protocol: as §1

IRR = target: T10, IRR (Homo sapiens, UniProt P14616)
T10 construct: lines 1-140) and Reaction Biology
Protocol: as §1

SmMLCK = target: T11, SmMLCK (Homo sapiens, UniProt Q15746)
T11 construct: lines 1-140) and Reaction Biology
Protocol: as §1

SRPK1 = target: T12, SRPK1 (Homo sapiens, UniProt Q96SB4)
T12 construct: lines 1-140) and Reaction Biology
T12 sequence (Q96SB4 whole entry): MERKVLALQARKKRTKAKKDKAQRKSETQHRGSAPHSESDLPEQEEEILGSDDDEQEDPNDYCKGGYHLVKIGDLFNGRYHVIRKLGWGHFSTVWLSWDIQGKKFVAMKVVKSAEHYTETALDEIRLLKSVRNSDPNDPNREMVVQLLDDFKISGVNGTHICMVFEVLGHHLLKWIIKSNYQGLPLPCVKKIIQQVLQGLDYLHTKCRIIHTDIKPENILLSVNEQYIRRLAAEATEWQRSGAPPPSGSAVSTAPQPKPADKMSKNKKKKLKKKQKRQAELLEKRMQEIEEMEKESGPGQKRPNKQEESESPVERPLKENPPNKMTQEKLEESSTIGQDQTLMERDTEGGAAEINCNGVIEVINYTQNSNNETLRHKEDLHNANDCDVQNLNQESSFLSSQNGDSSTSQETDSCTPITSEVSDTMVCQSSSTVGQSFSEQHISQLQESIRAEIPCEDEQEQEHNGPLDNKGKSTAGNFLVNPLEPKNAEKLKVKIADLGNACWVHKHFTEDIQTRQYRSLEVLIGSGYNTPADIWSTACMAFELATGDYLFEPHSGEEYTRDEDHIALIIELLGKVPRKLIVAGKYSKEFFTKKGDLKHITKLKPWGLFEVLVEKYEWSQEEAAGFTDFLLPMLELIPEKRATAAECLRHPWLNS
Protocol: as §1

ROCK 2 = target: T13, ROCK 2 (Homo sapiens, UniProt O75116)
T13 construct: lines 1-140) and Reaction Biology
Protocol: as §1

JNK2 = target: T14, JNK2 (Homo sapiens, UniProt P45984)
T14 construct: lines 1-140) and Reaction Biology
Protocol: as §1

PKCz = target: T15, PKCz (Homo sapiens, UniProt Q05513)
T15 construct: lines 1-140) and Reaction Biology
T15 sequence (Q05513 1-592): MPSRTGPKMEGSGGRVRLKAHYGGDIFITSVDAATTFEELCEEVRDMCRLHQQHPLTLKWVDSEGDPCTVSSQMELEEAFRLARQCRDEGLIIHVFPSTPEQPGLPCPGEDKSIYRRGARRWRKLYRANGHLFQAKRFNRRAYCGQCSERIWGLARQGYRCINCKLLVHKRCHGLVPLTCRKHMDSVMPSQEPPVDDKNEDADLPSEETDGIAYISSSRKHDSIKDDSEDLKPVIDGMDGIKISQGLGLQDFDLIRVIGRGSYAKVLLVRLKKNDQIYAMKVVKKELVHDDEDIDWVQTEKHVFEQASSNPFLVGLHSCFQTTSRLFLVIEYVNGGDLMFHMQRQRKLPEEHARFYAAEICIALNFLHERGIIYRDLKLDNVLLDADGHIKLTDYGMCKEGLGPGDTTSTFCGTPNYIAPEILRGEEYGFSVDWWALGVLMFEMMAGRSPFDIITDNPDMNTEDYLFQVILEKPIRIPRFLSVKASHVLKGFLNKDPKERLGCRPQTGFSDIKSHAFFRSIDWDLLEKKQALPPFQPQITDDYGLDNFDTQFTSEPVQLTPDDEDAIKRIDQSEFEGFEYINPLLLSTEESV
Protocol: as §1

MSK1 = target: T16, MSK1 (Homo sapiens, UniProt O75582)
T16 construct: lines 1-140) and Reaction Biology
T16 sequence (O75582 whole entry): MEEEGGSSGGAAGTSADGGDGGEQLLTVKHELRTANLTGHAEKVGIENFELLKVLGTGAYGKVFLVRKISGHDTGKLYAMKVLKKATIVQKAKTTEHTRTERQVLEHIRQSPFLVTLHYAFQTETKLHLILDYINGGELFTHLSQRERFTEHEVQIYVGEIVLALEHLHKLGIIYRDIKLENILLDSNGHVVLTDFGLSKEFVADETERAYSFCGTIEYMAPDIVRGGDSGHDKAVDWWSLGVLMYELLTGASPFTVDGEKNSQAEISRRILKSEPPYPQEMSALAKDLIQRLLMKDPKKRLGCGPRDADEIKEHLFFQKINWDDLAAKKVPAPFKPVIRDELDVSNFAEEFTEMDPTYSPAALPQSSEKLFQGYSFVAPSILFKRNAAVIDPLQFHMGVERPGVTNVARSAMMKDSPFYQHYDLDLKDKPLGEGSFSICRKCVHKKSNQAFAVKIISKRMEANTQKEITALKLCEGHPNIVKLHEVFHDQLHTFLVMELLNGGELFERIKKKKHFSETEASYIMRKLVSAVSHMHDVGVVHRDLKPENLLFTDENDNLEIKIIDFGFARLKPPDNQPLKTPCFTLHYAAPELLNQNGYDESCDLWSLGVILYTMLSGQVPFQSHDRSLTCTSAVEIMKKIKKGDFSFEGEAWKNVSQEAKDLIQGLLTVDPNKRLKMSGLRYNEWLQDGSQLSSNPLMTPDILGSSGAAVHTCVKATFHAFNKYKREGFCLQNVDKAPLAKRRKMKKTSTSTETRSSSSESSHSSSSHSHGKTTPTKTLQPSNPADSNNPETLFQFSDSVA
Protocol: as §1

NUAK1 = target: T17, NUAK1 (Homo sapiens, UniProt O60285)
T17 construct: lines 1-140) and Reaction Biology
T17 sequence (O60285 1-661): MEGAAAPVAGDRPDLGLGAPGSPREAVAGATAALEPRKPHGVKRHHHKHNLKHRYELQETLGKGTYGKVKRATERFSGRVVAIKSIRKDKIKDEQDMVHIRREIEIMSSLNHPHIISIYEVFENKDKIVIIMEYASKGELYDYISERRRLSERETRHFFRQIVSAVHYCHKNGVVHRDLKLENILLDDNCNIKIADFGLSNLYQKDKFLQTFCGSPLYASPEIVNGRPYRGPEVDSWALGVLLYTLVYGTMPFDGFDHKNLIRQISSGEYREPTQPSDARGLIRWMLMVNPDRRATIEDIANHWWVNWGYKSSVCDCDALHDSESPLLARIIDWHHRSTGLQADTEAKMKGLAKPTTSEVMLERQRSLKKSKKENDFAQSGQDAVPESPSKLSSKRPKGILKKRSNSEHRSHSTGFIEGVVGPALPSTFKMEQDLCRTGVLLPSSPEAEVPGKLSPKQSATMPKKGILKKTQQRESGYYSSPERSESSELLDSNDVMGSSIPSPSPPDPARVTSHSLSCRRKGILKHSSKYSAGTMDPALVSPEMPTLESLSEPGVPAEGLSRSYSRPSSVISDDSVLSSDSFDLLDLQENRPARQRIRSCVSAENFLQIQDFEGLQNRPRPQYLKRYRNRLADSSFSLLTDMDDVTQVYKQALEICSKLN
Protocol: as §1

PKCa = target: T18, PKCa (Homo sapiens, UniProt P17252)
T18 construct: lines 1-140) and Reaction Biology
Protocol: as §1

HER4 = target: T19, HER4 (Homo sapiens, UniProt Q15303)
T19 construct: lines 1-140) and Reaction Biology
Protocol: as §1

T1 sequence (P49841 whole entry): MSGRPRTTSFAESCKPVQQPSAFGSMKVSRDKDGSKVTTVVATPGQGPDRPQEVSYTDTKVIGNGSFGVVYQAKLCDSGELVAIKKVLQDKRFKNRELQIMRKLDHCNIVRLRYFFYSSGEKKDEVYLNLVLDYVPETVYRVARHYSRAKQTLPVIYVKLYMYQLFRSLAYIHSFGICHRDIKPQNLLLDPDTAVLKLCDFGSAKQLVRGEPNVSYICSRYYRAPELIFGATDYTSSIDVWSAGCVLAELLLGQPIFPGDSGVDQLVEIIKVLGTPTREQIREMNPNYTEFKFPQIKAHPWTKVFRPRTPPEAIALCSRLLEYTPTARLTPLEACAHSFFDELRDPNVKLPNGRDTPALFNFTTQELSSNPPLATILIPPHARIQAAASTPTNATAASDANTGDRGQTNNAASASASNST

Structure (SMILES) | remaining activity at 1 µM (GSK3b) [%] | remaining activity at 1 µM (RIPK2) [%] | remaining activity at 1 µM (MELK) [%] | remaining activity at 1 µM (Aurora B) [%] | remaining activity at 1 µM (p38b MAPK) [%] | remaining activity at 1 µM (VEGFR) [%] | remaining activity at 1 µM (MLK3) [%] | remaining activity at 1 µM (PIM2) [%] | remaining activity at 1 µM (CAMKKb) [%] | remaining activity at 1 µM (IRR) [%] | remaining activity at 1 µM (SmMLCK) [%] | remaining activity at 1 µM (SRPK1) [%] | remaining activity at 1 µM (ROCK 2) [%] | remaining activity at 1 µM (JNK2) [%] | remaining activity at 1 µM (PKCz) [%] | remaining activity at 1 µM (MSK1) [%] | remaining activity at 1 µM (NUAK1) [%] | remaining activity at 1 µM (PKCa) [%] | remaining activity at 1 µM (HER4) [%] | also measured
O=C1Nc2ccc(I)cc2/C1=C/c1cc(Br)c(O)c(Br)c1 [GW5074] | 42 | 51 | 48 | 29 | 77 | 29 | 17 | 10 | 19 | 61 | 40 | 8 | 56 | 80 | 88 | 74 | 63 | 85 | 68 | 
Oc1ncnc2c1c(-c1ccccc1)cn2-c1ccccc1 [F1386-0303, 5,7-diphenyl-7H-pyrrolo[2,3-d]pyrimidin-4-ol] | 127 | 105 | 90 | 85 | 96 | 73 | 30 | 84 | 98 | 95 | 76 | 112 | 132 | 94 | 108 | 102 | 48 | 70 | 82 | 
O=C1Cc2c([nH]c3ccc(Br)cc23)-c2ccccc2N1 [Kenpaullone] | 6 | 60 | 38 | 46 | 95 | 30 | 21 | 67 | 72 | 89 | 97 | 36 | 62 | 94 | 105 | 90 | 79 | 94 | 85 | 
COCCOc1ccc(-c2cn(-c3ccccc3)c3nc[nH]c(=O)c23)cc1 [DMX-5804, 5-[4-(2-methoxy-ethoxy)-phenyl]-7-phenyl-3,7-dihydro-pyrrolo[2,3-d]pyrimidin-4-one] | 102 | 89 | 83 | 29 | 93 | 27 | 12 | 105 | 77 | 96 | 89 | 91 | 104 | 103 | 121 | 121 | 14 | 116 | 106 | 
Nc1ncc(C(=O)NC2CN(C(=O)C3CC3)C2)c2ccc(-c3cccc(F)c3)nc12 [GNE-495] |  |  |  |  |  |  |  |  |  |  |  |  |  |  |  |  |  |  |  | residual activity (GSK3b; 1 μM): 69%; residual activity (RIPK2; 1 μM): 11%; residual activity (MELK; 1 μM): 82%; residual activity (Aurora B; 1 μM): 46%; residual activity (p38b MAPK; 1 μM): 100%; residual activity (VEGFR; 1 μM): 92%; residual activity (MLK3; 1 μM): 38%; residual activity (PIM2; 1 μM): 95%; residual activity (CAMKKb; 1 μM): 105%; residual activity (IRR; 1 μM): 83%; residual activity (SmMLCK; 1 μM): 68%; residual activity (SRPK1; 1 μM): 105%; residual activity (ROCK 2; 1 μM): 82%; residual activity (JNK2; 1 μM): 100%; residual activity (PKCz; 1 μM): 82%; residual activity (MSK1; 1 μM): 69%; residual activity (NUAK1; 1 μM): 49%; residual activity (PKCa; 1 μM): 50%; residual activity (HER4; 1 μM): 98%
